ChEMBL document CHEMBL1134942, “Synthesis and structure--activity relationship of novel aminotetralin derivatives with high micro selective opioid affinity” (Bioorg Med Chem Lett, 2002)

Legend:
[1] = target: Delta-type opioid receptor (Homo sapiens, UniProt P41143); assay: Binding affinity for Opioid receptor delta 1 was determined
[2] = target: Kappa-type opioid receptor (Homo sapiens, UniProt P41145); assay: Binding affinity for Opioid receptor kappa 1 was determined.
[3] = species on record: Mus musculus; assay: Antinociceptive activity in mice was determined using PBQ assay.; type: functional
[4] = species on record: Mus musculus; assay: Antinociceptive activity in mice was determined using Tail flick method.; type: functional
[5] = target: Mu-type opioid receptor (Homo sapiens, UniProt P35372); assay: Binding affinity for Opioid receptor mu 1
Sequence of Mu-type opioid receptor (P35372 whole entry): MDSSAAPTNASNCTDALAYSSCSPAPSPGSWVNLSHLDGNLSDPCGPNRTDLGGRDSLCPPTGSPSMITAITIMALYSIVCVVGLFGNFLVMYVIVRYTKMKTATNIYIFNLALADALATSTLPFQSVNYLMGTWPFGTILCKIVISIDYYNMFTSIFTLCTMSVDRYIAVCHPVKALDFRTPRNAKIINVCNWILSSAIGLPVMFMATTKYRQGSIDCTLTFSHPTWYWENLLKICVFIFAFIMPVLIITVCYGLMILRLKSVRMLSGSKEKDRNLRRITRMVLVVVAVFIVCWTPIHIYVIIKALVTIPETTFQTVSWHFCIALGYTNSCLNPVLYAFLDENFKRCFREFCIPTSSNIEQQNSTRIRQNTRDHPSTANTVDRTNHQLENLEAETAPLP

Sequence of Kappa-type opioid receptor (P41145 whole entry): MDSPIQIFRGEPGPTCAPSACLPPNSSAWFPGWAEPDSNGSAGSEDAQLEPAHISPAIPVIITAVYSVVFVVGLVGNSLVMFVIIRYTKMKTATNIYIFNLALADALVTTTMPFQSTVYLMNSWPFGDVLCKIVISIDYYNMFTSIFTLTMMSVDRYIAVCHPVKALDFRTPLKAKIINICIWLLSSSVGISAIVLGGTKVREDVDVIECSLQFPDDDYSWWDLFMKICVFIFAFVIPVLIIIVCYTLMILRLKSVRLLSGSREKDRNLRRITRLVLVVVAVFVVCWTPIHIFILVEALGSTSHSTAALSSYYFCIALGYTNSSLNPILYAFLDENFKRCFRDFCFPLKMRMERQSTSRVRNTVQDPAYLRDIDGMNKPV
Sequence of Delta-type opioid receptor (P41143 whole entry): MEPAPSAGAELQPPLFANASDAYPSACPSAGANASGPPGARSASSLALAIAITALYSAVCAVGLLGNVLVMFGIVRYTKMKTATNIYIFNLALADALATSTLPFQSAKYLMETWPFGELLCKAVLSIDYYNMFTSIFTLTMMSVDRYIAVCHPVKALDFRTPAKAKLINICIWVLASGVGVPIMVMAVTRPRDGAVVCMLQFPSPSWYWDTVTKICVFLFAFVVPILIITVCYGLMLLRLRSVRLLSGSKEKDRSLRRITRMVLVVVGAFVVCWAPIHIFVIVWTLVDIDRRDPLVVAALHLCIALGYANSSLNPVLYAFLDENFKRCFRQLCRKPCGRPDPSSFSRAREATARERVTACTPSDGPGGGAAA

Row | SMILES | Ki [1] [µM] | Ki [2] [µM] | ED50 [3] [µmol/kg] | ED50 [4] [µmol/kg] | Ki [5] [µM]
1 | CS[C@@H]1Cc2ccc(O)cc2C(C)(C)[C@@H]1N | 0.349 | 0.066 | 0.14 | 0.58 | –
2 | CC1(C)c2cc(O)ccc2C[C@@H](S)[C@H]1N | – | – | – | – | 0.163
3 | CO[C@@H]1Cc2ccc(O)cc2C(C)(C)[C@@H]1N | 5.22 | 0.184 | 1.1 | 16 | 0.0018
4 | CC1(C)c2cc(O)ccc2C[C@@H](O)[C@H]1N | – | – | – | – | 0.204
5 | CC1(C)c2cc(O)ccc2C[C@@H](S(C)(=O)=O)[C@H]1N | – | – | – | – | 1.15
6 | CC[C@H]1Cc2ccc(O)cc2C(C)(C)[C@@H]1N | – | – | – | – | 0.135
7 | C[C@@]12CCCCS[C@@H](Cc3ccc(O)cc31)C2N (stereo partly specified) | 0.42 | 0.0434 | 0.33 | – | 0.00079
8 | CC[C@@H]1Cc2ccc(O)cc2C(C)(C)[C@@H]1N | 4.51 | 0.345 | 4.8 | 10.4 | 0.021
9 | C[S+]([O-])[C@@H]1Cc2ccc(O)cc2C(C)(C)[C@@H]1N (stereo in doubt; 18A) | – | – | – | – | 1.06
10 | C[S+]([O-])[C@@H]1Cc2ccc(O)cc2C(C)(C)[C@@H]1N (stereo in doubt; 18B) | – | – | – | – | 2
11 | CN1CC[C@]23c4c5ccc(O)c4O[C@H]2[C@@H](O)C=C[C@H]3[C@H]1C5 [MORPHINE] | – | – | 1.6 | 1.2 | –
